{"source": "patent US20250386825A1", "about": "“Formulation for Applying to Vegetation” (Okipa Ltd, priority 2022, published 2025)", "tested_on": "potato leaves", "details": "for damage on Aug. 8, 2022 (rating score) / damage on Aug. 16, 2022 (rating score) / damage on Aug. 22, 2022 (rating score): treatment on Aug. 5, 2022, Braunschweig, score 0-10, * p < 0.05 vs untreated", "protocol": "In addition to the direct control of weeds in arable farming and on non-crop land, the use of sodium saccharin for desiccation of potatoes was examined. Thus, the following variants were tested in a field test (soil type: sandy loam): (a) untreated, (b) 160 g/l and (c) 320 g/l sodium saccharin. In this example, the addition of an additive was deliberately avoided in order to assess the specific effect of sodium saccharin. The experimental design was a fully randomized block design with 3 replicates and a plot size of 2.25 m^2.\nIn each case, a row of potatoes 3 m in length was applied using a 5 l hand-held sprayer (®Gloria) with a conventional annular nozzle at a pressure of 3-4 bar. As a result, the degree of damage was recorded in the form of the following rating score.\nScore (damage) of the potato leaves after treatment with Sodium saccharin (treatment on Aug. 5, 2022, Braunschweig, conventional cultivation)", "note": "Like-named read-outs stand apart in the source and are kept apart here."}
{"molecule": "O=C1NS(=O)(=O)c2ccccc21.[Na]", "note": "[Sodium saccharin, sodium saccharin]", "values": [{"measurement": "damage on Aug. 8, 2022 (rating score)", "setting": "160 g/l, no additive", "value": "1.3*"}, {"measurement": "damage on Aug. 16, 2022 (rating score)", "setting": "160 g/l, no additive", "value": "5.3*"}, {"measurement": "damage on Aug. 22, 2022 (rating score)", "setting": "160 g/l, no additive", "value": "8.3*"}, {"measurement": "damage on Aug. 8, 2022 (rating score)", "setting": "320 g/l, no additive", "value": "3.3*"}, {"measurement": "damage on Aug. 16, 2022 (rating score)", "setting": "320 g/l, no additive", "value": "7.7*"}, {"measurement": "damage on Aug. 22, 2022 (rating score)", "setting": "320 g/l, no additive", "value": "9.3*"}, {"measurement": "desiccation of potato leaves (trend in words)", "setting": "field test, 160 g/l and 320 g/l, no additive", "value": "sufficiently desiccated"}, {"measurement": "desiccation of potato leaves (in words)", "setting": "low concentration (160 g/l), after 17 days", "value": "sufficient desiccation"}]}
